We go through 1 compound from paper PMC12544700, “Identification of a Small Secretoneurin Derivative That Inhibits CaMKIIδ Activity” (Journal of Cellular and Molecular Medicine, 2025).

Peptide text beside a SMILES is read from it. * marks the point of attachment. Biotin = O=C1N[C@H]2[C@H](CS[C@H]2CCCCC(=O)*)N1; Ahx = NCCCCCC(=O)O

One experiment deals with T1, human His‐CaMKIIδ‐T287D (Homo sapiens, UniProt Q13557, T287D).
T1 construct: Recombinant human His‐CaMKIIδ‐T287D and rat His‐CaMKIIδ‐T287D full‐length proteins; His; purchased Genscript Corp (custom made)
Put plainly: CaMKII pull-down with biotinylated peptides on streptavidin beads. Type of experiment: binding. Conditions: biotin‐SN‐db‐short vs biotin‐SN; immunoblot; Figure S2A, n = 8. Here is the method: In the CaMKII pull‐down assay, the biotinylated peptides (20 μL) were coupled to 50 μL of streptavidin magnetic beads (88816, Thermo Fisher) in PBS for 2 h at 4°C with rotation. The bead‐bound peptides were thereafter incubated with 1 μg of human His‐CaMKIIδ‐T287D in 300 μL of PBS or PBS with 1% BSA for 2 h at 4°C with rotation. The protein complexes attached to the beads were then washed three times in 300 μL of IP buffer (20 mM Hepes, pH 7.5, 150 mM NaCl, 1 mM EDTA, 1% Triton X‐100, supplemented with complete protease inhibitor cocktail and phosphatase inhibitor cocktail) or PBS. Samples were boiled in SDS loading buffer at 95°C for 5 min before western blot analysis.
Lysates and immunoprecipitates were separated on 12% or 4%–15% Criterion TGX precast gels (5671044 and 5671084, Biorad, Hercules, CA, USA), blotted onto PVDF membranes (1704157 by Biorad or 03010040001 by Sigma Merck) and reversibly stained with Revert 700 Total Protein Stain (Li‐COR Biosciences, Lincoln, NE, USA). […] Blots were developed using ECL (RPN2236, GE Healthcare, Chicago, IL, USA) after four washing steps of 10 min in TBS‐t and the chemiluminescence signals were detected by Azure Biosystems 600 (Dublin, CA, USA). […] ImageJ [13] was used to quantify the blots. […]
On the technique in general: Immunoblotting shows a protein as a band on a membrane.

In experiment [1] the test system is CaMKIIδ fragments (aa 1–74, 1–165, 1–282, 1–311, 69–282). Put plainly: ELISA-based binding to CaMKIIδ fragments. Further details: species or system rat. Conditions: biotinylated peptide; fragments coated in wells; relative to Scram; Figure 2B, n = 9–13. Here is the method: Recombinant human His‐CaMKIIδ‐T287D and rat His‐CaMKIIδ‐T287D full‐length proteins (T287D mutated to mimic active kinases) and rat His‐CaMKIIδ (1–74), rat His‐CaMKIIδ (1–165), rat His‐CaMKIIδ (1–282), rat His‐CaMKIIδ‐T287D (1–311), and rat His‐CaMKIIδ (69–282) recombinant fragments were generated by Genscript Corp.
A 96‐well microplate was coated with 1 μg/well of rat or human recombinant His‐CaMKIIδ‐T287D or CaMKIIδ fragments (custom made by Genscript) in 1× PBS overnight at 4°C with gentle tilting. Wells were washed with 1× PBS‐t (0.1% Tween‐20) and blocked with 0.5% gelatin (G‐1890 Gelatin type A, Sigma Merck, Darmstadt, Germany) or BSA (805095 30% BSA (Rinderalbumin 30%), Norsk Labex, Høvik, Norway) for 1 h at room temperature (RT), then incubated with 5 μL of biotinylated peptide (1 mM) for 2 h at 37°C with gentle tilting. The wells were then washed five times with 1× PBS‐t. To detect binding, the wells were incubated with a monoclonal anti‐biotin‐HRP conjugated antibody (1:5000 dilution, A‐0185, Sigma) for 30 min at RT. […] The reaction was stopped by adding 2 N HCl (100 μL), and the signal was measured at 450 nm by a plate reader (Hidex Sense Microplate Reader, Åbo, Finland). […]

T1 sequence (Q13557 whole entry T287D): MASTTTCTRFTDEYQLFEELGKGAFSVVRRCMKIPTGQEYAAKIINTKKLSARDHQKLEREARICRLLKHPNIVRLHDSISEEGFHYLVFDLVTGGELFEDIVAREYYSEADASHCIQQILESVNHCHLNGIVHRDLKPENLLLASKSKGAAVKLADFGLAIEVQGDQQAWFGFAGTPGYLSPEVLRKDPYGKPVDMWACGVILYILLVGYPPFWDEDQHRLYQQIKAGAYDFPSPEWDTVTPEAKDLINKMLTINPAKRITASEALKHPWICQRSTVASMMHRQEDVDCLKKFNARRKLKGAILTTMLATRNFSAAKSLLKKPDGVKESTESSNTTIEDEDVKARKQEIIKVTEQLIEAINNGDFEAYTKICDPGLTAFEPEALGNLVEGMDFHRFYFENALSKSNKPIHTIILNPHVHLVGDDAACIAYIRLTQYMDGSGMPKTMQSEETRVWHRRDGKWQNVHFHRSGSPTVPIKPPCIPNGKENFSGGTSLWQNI

With `CC(C)C[C@H](NC(=O)[C@H](CCC(=O)O)NC(=O)[C@H](CCC(N)=O)NC(=O)[C@H](Cc1ccccc1)NC(=O)[C@H](Cc1ccccc1)NC(=O)[C@H](CO)NC(=O)[C@H](CCC(=O)O)NC(=O)[C@H](Cc1ccccc1)NC(=O)[C@@H](NC(=O)[C@H](C)NC(=O)[C@H](CC(C)C)NC(=O)[C@H](CO)NC(=O)[C@H](CCC(N)=O)NC(=O)[C@@H]1CCCN1C(=O)[C@@H](NC(=O)[C@H](Cc1ccc(O)cc1)NC(=O)[C@H](CCC(N)=O)NC(=O)[C@H](CCC(=O)O)NC(=O)CCCCCNC(=O)CCCC[C@@H]1SC[C@@H]2NC(=O)N[C@@H]21)[C@@H](C)O)[C@@H](C)O)C(=O)NCC(=O)N[C@@H](CCCCN)C(=O)O` [SN‐db‐short] ({Biotin-Ahx}-EQYTPQSLATFESFFQELGK-OH; N-terminus and C-terminus assumed), the “Binding to recombinant human CaMKIIδ‐T287D vs. native SN (pull down)” value on human His‐CaMKIIδ‐T287D is on record as “increased binding”. Moreover, the “Binding to CaMKIIδ fragments” value in experiment [1] is recorded as “binding was detected for all fragments”.
